Experimental data as given in patent publication US20040006061A1, “Alkoxybenzylamine” (priority 2001, published 2004).

System: Staphylococcus hominis DSM 20328
Test: Determination of the Minimum Inhibitory Concentration (MIC value) in microtitre plates, Staphylococcus hominis
Assay type: cell-based
Details: Staphylococcus hominis DSM 20328; CASO broth, 48 hours at 37° C.; MIC = ≦20% growth (optical density at 620 nm); listed as (82)
Procedure: (§1) Determination of the Minimum Inhibitory Concentration (MIC Value) in Microtitre Plates
Casein-soybean flour-peptone broth for preparation of pre-cultures of test bacteria and yeast.
Staphylococcus hominis DSM 20328 […]
(§2) The test substances are pre-dissolved in dimethyl sulfoxide (DMSO) and tested in a dilution series of 1:2.
(§3) The bacteria are cultured overnight in CASO broth and washed off using 10 ml of 0.85% sodium chloride solution (+0.1% Triton X-100).
(§4) All the test organisms are adjusted to an organism count of 1-5×10^6 CFU/ml using 0.85% sodium chloride solution.
(§5) The test substances are pre-pipetted into microtitre plates in amounts of 8 μl per well.
(§6) Pre-diluted test organism suspensions are diluted 1:100 in CASO broth.
(§7) The test batches are incubated for 48 hours at 37° C.
(§8) After incubation, the growth is determined on the basis of the turbidity of the test batches (optical density) at 620 nm in a microplate reader.
(§9) The minimum inhibitory concentration (MIC value) is the concentration of substance at which there is found (compared to the growth of the control) an appreciable inhibition of growth (≦20% growth) of the test organisms.
(§10) One microtitre plate is used for each test organism and substance concentration.
(§11) All the substances are tested in duplicate.

SMILES	MIC [μg/ml] SH
CCCCCCCCCCCCOc1ccc(CN2CCCC2)cc1 [Compound of formula (82)]	7.5 µg/mL

Same assay, conditions: Staphylococcus hominis, DSM20328, 48 h, Staphylococcus hominis DSM 20328; CASO broth, 48 hours at 37° C.; MIC = ≦20% growth (optical density at 620 nm); read-out: MIC [μg/ml] SH

SMILES	MIC
CCCCCCOc1ccc(CN2CCN(c3cccc(OC)c3)CC2)cc1OC [Compound of formula (38)]	> 120 µg/mL
CCCCCCCCCCCCOc1ccc(CN(C(C)C)C(C)C)cc1OC [Compound of formula (11)]	> 120 µg/mL
CCCCCCOc1ccc(CN(C)C)cc1OC [Compound of formula (36)]	> 120 µg/mL
CCCCCCCCOc1ccc(CN2CCN(C)CC2)cc1OC [Compound of formula (44)]	120 µg/mL
CCCCCCCCCCCCOc1ccc(CN(C(C)C)C(C)C)cc1 [Compound of formula (75)]	> 120 µg/mL
CCCCCCCCCCCCOc1ccc(CN(CC)CC)cc1OC [Compound of formula (13)]	3.75 µg/mL
CCCCCCCCCCCCOc1ccc(CN(C)CCc2ccccn2)cc1 [Compound of formula (71)]	> 120 µg/mL
CCCCCCN(C)Cc1ccc(OCCC)c(OC)c1 [Compound of formula (64)]	> 120 µg/mL
CCCCCCCCCCCCOc1ccc(CN2CCN(C(C)=O)CC2)cc1 [Compound of formula (78)]	> 120 µg/mL
CCCCCCOc1ccc(CN2CCNCC2)cc1OCCCCCC [Compound of formula (101)]	> 120 µg/mL
CCCCCCOc1ccc(CN2CCOCC2)cc1OCCCCCC [Compound of formula (88)]	> 120 µg/mL
CCCCCCCCCCCCOc1ccc(CN(C)C)cc1OC [Compound of formula (20)]	7.5 µg/mL
CCCCCCOc1ccc(CN(CC)CC)cc1OCCCCCC [Compound of formula (93)]	7.5 µg/mL
CCCCCCOc1ccc(CN2CCCCCC2)cc1OC [Compound of formula (26)]	> 120 µg/mL
CCCCCCCCCCCCN(C)Cc1ccc(OCCCCCC)c(OCCCCCC)c1 [Compound of formula (99)]	> 120 µg/mL
CCCOc1ccc(CN(C(C)C)C(C)C)cc1OC [Compound of formula (59)]	> 120 µg/mL
CCCCCCCCOc1ccc(CN(C(C)C)C(C)C)cc1OC [Compound of formula (43)]	> 120 µg/mL

SMILES	MIC
CCCCCCCCCCCCOc1ccc(CN(C)Cc2ccccc2)cc1 [Compound of formula (79)]	60 µg/mL
CCCCCCCCCCCCOc1ccc(CN2CCCC2)cc1OC [Compound of formula (18)]	3.75 µg/mL
CCCCCCCCCCCCOc1ccc(CN(C)C)cc1 [Compound of formula (84)]	7.5 µg/mL
CCCCCCOc1ccc(CN(CC)CC)cc1OC [Compound of formula (29)]	> 120 µg/mL
CCCCCCOc1ccc(CN2CCCCC2)cc1OC [Compound of formula (5)]	> 120 µg/mL
CCCCCCOc1ccc(CN2CCCCC2)cc1OCCCCCC [Compound of formula (102)]	7.5 µg/mL
CCCCCCOc1ccc(CN(C)CCCCCC)cc1OCCCCCC [Compound of formula (96)]	120 µg/mL
CCCCCCOc1ccc(CN2CCN(C(C)=O)CC2)cc1OC [Compound of formula (30)]	> 120 µg/mL
CCCCCCCCCCCCOc1ccc(CN2CCCCCC2)cc1OC [Compound of formula (10)]	3.75 µg/mL
CCCCCCCCOc1ccc(CN2CCN(CC)CC2)cc1OC [Compound of formula (49)]	60 µg/mL
CCCCCCOc1ccc(CN2CCCC2)cc1OC [Compound of formula (6)]	> 120 µg/mL
CCCCCCOc1ccc(CN2CCCCCC2)cc1OCCCCCC [Compound of formula (90)]	7.5 µg/mL
CCCCCCCCCCCCN(C)Cc1ccc(OCCC)c(OC)c1 [Compound of formula (67)]	60 µg/mL
CCCCCCCCOc1ccc(CN2CCOCC2)cc1OC [Compound of formula (40)]	> 120 µg/mL
CCCCCCOc1ccc(CN2CCCC2)cc1OCCCCCC [Compound of formula (98)]	3.75 µg/mL
CCCOc1ccc(CN(C)CCc2ccccn2)cc1OC [Compound of formula (55)]	> 120 µg/mL
CCCCCCCCCCCCN(C)Cc1ccc(OCCCCCC)c(OC)c1 [Compound of formula (35)]	15 µg/mL

Same assay, conditions: Staphylococcus hominis, DSM20328, 48 h, read-out: MIC [μg/ml] SH

SMILES	MIC
CCCOc1ccc(CN2CCN(C)CC2)cc1OC [Compound of formula (60)]	> 120 µg/mL
CCCOc1ccc(CN2CCNCC2)cc1OC [Compound of formula (69)]	> 120 µg/mL

System: Escherichia coli NCTC 8196
Test: Determination of the Minimum Inhibitory Concentration (MIC value) in microtitre plates, Escherichia coli
Assay type: cell-based
Details: Escherichia coli, NCTC8196, 48 h, Escherichia coli NCTC 8196; CASO broth, 48 hours at 37° C.; MIC = ≦20% growth (optical density at 620 nm); read-out: MIC [μg/ml] EC
Procedure: as §1
Casein-soybean flour-peptone broth for preparation of pre-cultures of test bacteria and yeast. […]
Escherichia coli NCTC 8196
as §2, §3, §4, §5, §6, §7, §8, §9, §10, §11

SMILES	MIC
CCCCCCOc1ccc(CN2CCN(c3cccc(OC)c3)CC2)cc1OC [Compound of formula (38)]	> 120 µg/mL
CCCCCCCCCCCCOc1ccc(CN(C(C)C)C(C)C)cc1OC [Compound of formula (11)]	> 120 µg/mL
CCCCCCOc1ccc(CN(C)C)cc1OC [Compound of formula (36)]	> 120 µg/mL
CCCCCCCCOc1ccc(CN2CCN(C)CC2)cc1OC [Compound of formula (44)]	120 µg/mL
CCCCCCCCCCCCOc1ccc(CN(C(C)C)C(C)C)cc1 [Compound of formula (75)]	> 120 µg/mL
CCCCCCCCCCCCOc1ccc(CN(CC)CC)cc1OC [Compound of formula (13)]	> 120 µg/mL
CCCCCCCCCCCCOc1ccc(CN(C)CCc2ccccn2)cc1 [Compound of formula (71)]	> 120 µg/mL
CCCCCCN(C)Cc1ccc(OCCC)c(OC)c1 [Compound of formula (64)]	> 120 µg/mL
CCCCCCCCCCCCOc1ccc(CN2CCN(C(C)=O)CC2)cc1 [Compound of formula (78)]	> 120 µg/mL
CCCCCCOc1ccc(CN2CCNCC2)cc1OCCCCCC [Compound of formula (101)]	> 120 µg/mL
CCCCCCOc1ccc(CN2CCOCC2)cc1OCCCCCC [Compound of formula (88)]	> 120 µg/mL
CCCCCCCCCCCCOc1ccc(CN(C)C)cc1OC [Compound of formula (20)]	15 µg/mL
CCCCCCOc1ccc(CN(CC)CC)cc1OCCCCCC [Compound of formula (93)]	120 µg/mL
CCCCCCOc1ccc(CN2CCCCCC2)cc1OC [Compound of formula (26)]	> 120 µg/mL
CCCCCCCCCCCCN(C)Cc1ccc(OCCCCCC)c(OCCCCCC)c1 [Compound of formula (99)]	> 120 µg/mL
CCCOc1ccc(CN(C(C)C)C(C)C)cc1OC [Compound of formula (59)]	> 120 µg/mL
CCCCCCCCOc1ccc(CN(C(C)C)C(C)C)cc1OC [Compound of formula (43)]	> 120 µg/mL
CCCCCCCCCCCCOc1ccc(CN(C)Cc2ccccc2)cc1 [Compound of formula (79)]	> 120 µg/mL

SMILES	MIC
CCCCCCCCCCCCOc1ccc(CN2CCCC2)cc1OC [Compound of formula (18)]	15 µg/mL
CCCCCCCCCCCCOc1ccc(CN(C)C)cc1 [Compound of formula (84)]	60 µg/mL
CCCCCCOc1ccc(CN(CC)CC)cc1OC [Compound of formula (29)]	> 120 µg/mL
CCCCCCOc1ccc(CN2CCCCC2)cc1OC [Compound of formula (5)]	> 120 µg/mL
CCCCCCOc1ccc(CN2CCCCC2)cc1OCCCCCC [Compound of formula (102)]	> 120 µg/mL
CCCCCCOc1ccc(CN(C)CCCCCC)cc1OCCCCCC [Compound of formula (96)]	> 120 µg/mL
CCCCCCCCCCCCOc1ccc(CN2CCCC2)cc1 [Compound of formula (82)]	60 µg/mL
CCCCCCOc1ccc(CN2CCN(C(C)=O)CC2)cc1OC [Compound of formula (30)]	> 120 µg/mL
CCCCCCCCCCCCOc1ccc(CN2CCCCCC2)cc1OC [Compound of formula (10)]	> 120 µg/mL
CCCCCCCCOc1ccc(CN2CCN(CC)CC2)cc1OC [Compound of formula (49)]	120 µg/mL
CCCCCCOc1ccc(CN2CCCC2)cc1OC [Compound of formula (6)]	> 120 µg/mL
CCCCCCOc1ccc(CN2CCCCCC2)cc1OCCCCCC [Compound of formula (90)]	> 120 µg/mL
CCCCCCCCCCCCN(C)Cc1ccc(OCCC)c(OC)c1 [Compound of formula (67)]	> 120 µg/mL
CCCCCCCCOc1ccc(CN2CCOCC2)cc1OC [Compound of formula (40)]	> 120 µg/mL
CCCCCCOc1ccc(CN2CCCC2)cc1OCCCCCC [Compound of formula (98)]	7.5 µg/mL
CCCOc1ccc(CN(C)CCc2ccccn2)cc1OC [Compound of formula (55)]	> 120 µg/mL
CCCCCCCCCCCCN(C)Cc1ccc(OCCCCCC)c(OC)c1 [Compound of formula (35)]	> 120 µg/mL

Same assay, conditions: Escherichia coli, NCTC8196, 48 h, read-out: MIC [μg/ml] EC

SMILES	MIC
CCCOc1ccc(CN2CCN(C)CC2)cc1OC [Compound of formula (60)]	> 120 µg/mL
CCCOc1ccc(CN2CCNCC2)cc1OC [Compound of formula (69)]	> 120 µg/mL
